This is an account of results in the supplement of paper PMC4862054.

What all share (conditions): 72 h
The subject of test [1] is BT-474. As for the experimental part:
(§1)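 Drug sensitivity and resistance testing (DSRT) of breast cancer cell lines in 384-well plates, 5 concentrations in 10-fold dilutions over a compound-specific 10,000-fold range. After 72 h, cytotoxicity was read by CellTox Green fluorescence and viability by CellTiter-Glo luminescence (multiplexed), normalised to DMSO and benzethonium chloride controls. EC50 is the inflection point of the fitted dose-response curve (bottom asymptote free, so it can be relative for partial curves) and is censored at the highest tested concentration. Rows with DSS 0 (no meaningful response) were excluded.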

Test [2] has as its system CAL-85-1. As for the experimental part:
as §1

For test [3], the system named is HCC1599. How it is done:
as §1

Test [4] concerns MDA-MB-231. As for the experimental part: as §1
For test [5], the system named is MFM-223. As for the experimental part:
as §1

The test system of test [6] is MDA-MB-453. As for the experimental part: as §1
In test [7] the test system is HCC1599. Put shortly: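 Breast cancer cell lines in 20 µl suspension were added to 384-well plates already holding compound at 5 concentrations, spaced in 10-fold steps across a compound-specific 10,000-fold range, and incubated for 72 h. CellTox Green fluorescence (485/520 nm) was read first to measure cell death, followed by CellTiter-Glo luminescence for viability after 10 min at room temperature. Each plate was normalised to 0.1 % DMSO and a positive kill control. EC50 values came from dose-response curve fits and were censored at the top concentration.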
This is another data set of the same source.

Test [8] deals with HCC1599. The procedure, abridged:
(§2)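 Breast cancer cell lines in 20 µl suspension were seeded onto 384-well plates that already held compound dissolved in 5 µl medium and were incubated for 72 h. Viability was measured by adding 2.5 µl CellTiter-Blue for 2 h at 37 °C and reading fluorescence at 560/590 nm. Each plate was normalised to vehicle and a positive kill control and checked by Z'-factor. EC50 was taken from a fitted percent-inhibition dose-response curve, censored at the highest concentration, and rows with a drug sensitivity score of zero were removed.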
The source holds these as a separate data set.

In test [9] the test system is CAL-148. How it is done:
as §1

The test system of test [10] is CAL-51. The procedure, abridged: as §2
Test [11] relates to CAL-148. The procedure, abridged:
as §2
This is another data set of the same source.

The subject of test [12] is MDA-MB-453. The procedure, abridged:
as §2
This is another data set of the same source.

Test [13] has as its system BT-474. The procedure, abridged:
as §2
The source holds these as a separate data set.

Test [14] deals with MFM-223. The procedure, abridged:
as §2
The source holds these as a separate data set.

In test [15] the test system is MDA-MB-468. Put shortly:
as §2

Test [16] relates to SK-BR-3. The procedure, abridged: as §2
In test [17] the test system is HCC1937. How it is done: as §1
The subject of test [18] is BT-549. How it is done:
as §1

For test [19], the system named is CAL-120. How it is done:
as §1

Test [20] deals with CAL-51. As for the experimental part:
as §1
The source holds these as a separate data set.

Test [21] relates to HCC1143. How it is done:
as §1

The subject of test [22] is MDA-MB-436. How it is done:
as §1

For test [23], the system named is Hs578T. How it is done: as §1
For test [24], the system named is MDA-MB-468. As for the experimental part: as §1
The source holds these as a separate data set.

Test [25] relates to HDQ-P1. How it is done:
as §1

Test [26] deals with DU-4475. How it is done: as §1
The test system of test [27] is MCF-10A. As for the experimental part: as §1
Test [28] deals with HCC1937. Put shortly: as §2
The source holds these as a separate data set.

In test [29] the test system is Hs578T. The procedure, abridged: as §2
The source holds these as a separate data set.

Test [30] concerns DU-4475. The procedure, abridged:
as §2
This is another data set of the same source.

Test [31] has as its system CAL-85-1. The procedure, abridged: as §2
The source holds these as a separate data set.

Test [32] relates to HDQ-P1. The procedure, abridged:
as §2
The source holds these as a separate data set.

Test [33] concerns BT-549. The procedure, abridged: as §2
The source holds these as a separate data set.

The subject of test [34] is CAL-120. The procedure, abridged: as §2
This is another data set of the same source.

Test [35] relates to MDA-MB-231. The procedure, abridged: as §2
The source holds these as a separate data set.

Test [36] deals with HCC1143. Put shortly:
as §2
The source holds these as a separate data set.

Test [37] has as its system MDA-MB-436. Put shortly: as §2
The source holds these as a separate data set.

On to `CCCc1cc(C)[nH]c(=O)c1CNC(=O)c1cc(-c2ccnc(N3CCN(C)CC3)c2)cc2c1cnn2C(C)C` [GSK343], for which the “EC50, CellTox Green” value was 3370 nM in [1]; 3440 nM in test [2]; above 10000 nM in [3]; 2280 nM in [4]; 227 nM in test [5]; 2680 nM in test [6]. Moreover, in test [7], the “EC50, CellTiter-Glo” value came out at 5170 nM.
With `O=C(O)CC[C@H]1CC[C@@](c2cc(F)ccc2F)(S(=O)(=O)c2ccc(Cl)cc2)CC1` [MK-0752], in test [8], the “EC50, CellTiter-Blue viability” value worked out at 70.2 nM.
Turning to `NC1(c2ccc(-c3nc4ccn5c(=O)[nH]nc5c4cc3-c3ccccc3)cc2)CCC1` [MK-2206], the “EC50, CellTox Green” value in [9] is 478 nM. Besides, the “EC50, CellTiter-Blue viability” value in [10] turned out to be 942 nM; in test [11], 790 nM; in [12] it was 436 nM; in test [13] it was 192 nM; in test [14], 369 nM; in test [15], 131 nM. In addition, the “EC50, CellTiter-Blue viability” value in [16] stood at 116 nM.
Consider `N[C@@H](Cc1ccc(N(CCCl)CCCl)cc1)C(=O)O` [Melphalan], for which the “EC50, CellTox Green” value in test [1] was 347 nM; in [17] it was 613 nM; in test [2], 392 nM; in test [18], 778 nM; in test [3], 726 nM; in test [19], 1790 nM. The “EC50, CellTox Green” value in [20] was found to be 194 nM; in [4] it was 129 nM; in [21], 2910 nM; in test [5] it was 514 nM; in test [22], 2300 nM; in test [23], 1110 nM. Moreover, the “EC50, CellTox Green” value in test [24] turned out to be 293 nM; in [9], 354 nM; in test [25], 363 nM; in test [26], 1290 nM; in test [6], 419 nM; in test [27], 275 nM. The “EC50, CellTiter-Glo” value in [7] stood at 467 nM. Further, the “EC50, CellTiter-Blue viability” value in test [28] was 85.5 nM; in test [29], 222 nM.
As to `O=C(c1cc(Cc2n[nH]c(=O)c3ccccc23)ccc1F)N1CCN(C(=O)C2CC2)CC1` [Olaparib], the “EC50, CellTox Green” value in test [20] is 8300 nM; in test [22], 498 nM. The “EC50, CellTiter-Blue viability” value in [10] stood at 6590 nM; in test [30], 418 nM; in test [28], 116 nM; in test [15], 1610 nM.
Take `CO[C@H](C(=O)[C@@H](O)[C@@H](C)O)[C@@H]1Cc2cc3cc(O[C@H]4C[C@@H](O[C@@H]5C[C@@H](O)[C@H](O)[C@@H](C)O5)[C@H](O)[C@@H](C)O4)c(C)c(O)c3c(O)c2C(=O)[C@H]1O[C@H]1C[C@@H](O[C@@H]2C[C@@H](O)[C@@H](O[C@@H]3C[C@](C)(O)[C@H](O)[C@@H](C)O3)[C@@H](C)O2)[C@H](O)[C@@H](C)O1` [Plicamycin]: the “EC50, CellTox Green” value was 8290 nM in test [2]; 2120 nM in test [20]; 6420 nM in test [23]; 390 nM in test [24]; 7420 nM in [6]; 2850 nM in test [27]. Besides, the “EC50, CellTiter-Blue viability” value was 83.7 nM in [31]; 124 nM in test [10]; 73.6 nM in [11]; 84.5 nM in [32]; 48.8 nM in [30]; 82 nM in test [12]. For the same molecule, the “EC50, CellTiter-Blue viability” value in test [13] was 123 nM; in test [28] it was 37.2 nM; in [33], 33.6 nM; in [8] it was 105 nM; in test [34] it was 47.1 nM; in [35], 41.6 nM. Besides, the “EC50, CellTiter-Blue viability” value worked out at 26.9 nM in [36]; 168 nM in test [14]; 25.5 nM in test [37]; 30.8 nM in test [29]; 28.1 nM in [15]; 49.8 nM in test [16]. In addition, the “EC50, CellTiter-Glo” value in [7] came to 4450 nM.
In the case of `C[C@]12C=CC(=O)C=C1CC[C@@H]1[C@@H]2C(=O)C[C@@]2(C)[C@H]1CC[C@]2(O)C(=O)CO` [Prednisone], the “EC50, CellTox Green” value in [19] worked out at 1000 nM.
In the case of `CO[C@H]1C[C@@H]2CC[C@@H](C)[C@@](O)(O2)C(=O)C(=O)N2CCCC[C@H]2C(=O)O[C@H]([C@H](C)C[C@@H]2CC[C@@H](O)[C@H](OC)C2)CC(=O)[C@H](C)/C=C(\C)[C@@H](O)[C@@H](OC)C(=O)[C@H](C)C[C@H](C)/C=C/C=C/C=C/1C` [Sirolimus], the “EC50, CellTox Green” value in test [17] is 98.7 nM. Further, the “EC50, CellTiter-Blue viability” value came to 0.46 nM in [31]; 0.79 nM in test [10]; 1.13 nM in [11]; 0.55 nM in test [32]; 1.24 nM in test [30]; 0.71 nM in [12]. For the same molecule, the “EC50, CellTiter-Blue viability” value in test [28] came to 0.16 nM; in test [33] it was 0.2 nM; in [8], 1.57 nM; in test [34], 1.32 nM; in [36], 1.33 nM; in test [14], 0.18 nM. The “EC50, CellTiter-Blue viability” value in test [29] is 0.14 nM; in test [15], 0.26 nM; in test [16], 3.42 nM.
For the molecule `CC/C(=C(\c1ccccc1)c1ccc(OCCN(C)C)cc1)c1ccccc1` [Tamoxifen], the “EC50, CellTox Green” value is 325 nM in test [17] and 7240 nM in [6]. Further, the “EC50, CellTiter-Blue viability” value was found to be 5970 nM in test [12], 3420 nM in [33], 7520 nM in test [37] and 4420 nM in test [15].
On to `CN1CCc2c(c3ccccc3n2Cc2ccc(C(=O)NO)cc2)C1` [Tubastatin A], for which the “EC50, CellTox Green” value was above 10000 nM in [1], 2220 nM in [20] and 297 nM in test [21].
As to `CC[C@@H]1C(=O)N(C)c2cnc(Nc3ccc(C(=O)N[C@H]4CC[C@H](N5CCN(CC6CC6)CC5)CC4)cc3OC)nc2N1C(C)C` [Volasertib], the “EC50, CellTox Green” value in test [17] stood at 0.49 nM; in [2] it was 3.2 nM; in test [18], 68.5 nM; in test [20], 20.7 nM; in [4], 3.18 nM; in [21] it was 49.1 nM. The “EC50, CellTox Green” value in test [5] stood at 0.83 nM; in [23] it was 120 nM; in [25], 17.9 nM; in test [27], 2.53 nM. For the same molecule, the “EC50, CellTiter-Blue viability” value came to 10.4 nM in test [31]; 24.8 nM in test [10]; 11.6 nM in test [11]; 379 nM in [32]; 24.7 nM in test [30]; 6.23 nM in [12]. In addition, the “EC50, CellTiter-Blue viability” value is above 1000 nM in test [13]; 11.1 nM in test [28]; 23.5 nM in test [33]; 5.21 nM in test [34]; 20.4 nM in test [35]; 13.8 nM in [36]. Further, the “EC50, CellTiter-Blue viability” value amounted to 1.6 nM in [14], 36.8 nM in test [29], 13.7 nM in test [15] and 8.58 nM in test [16]. In test [7], the “EC50, CellTiter-Glo” value was determined as 64.5 nM.
